Numbered stars: 1 amine (or outer) side, 2 acyl side, 3 side chain; on linkers, the order of the positions; unused ones are H or OH. Bridge positions count the residues as written; N and C are the ends. Square brackets hold non-standard residues; d marks the D form. Peptide text beside a SMILES is read from it. * marks the point of attachment. Trp(βS-Me,7-OMe) = COc1cccc2c([C@H](C)[C@H](N)C(=O)O)c[nH]c12; Phe(4-SO2NH2) = N[C@@H](Cc1ccc(S(N)(=O)=O)cc1)C(=O)O; Phe(2-F,4-COOH) = N[C@@H](Cc1ccc(C(=O)O)cc1F)C(=O)O; Ala(indazol-1-yl) = N[C@@H](Cn1ncc2ccccc21)C(=O)O; Trp(7-CN) = N#Cc1cccc2c(C[C@H](N)C(=O)O)c[nH]c12; Trp(7-Cl) = N[C@@H](Cc1c[nH]c2c(Cl)cccc12)C(=O)O; Ala(pyrimidin-5-yl) = N[C@@H](Cc1cncnc1)C(=O)O; Phe(3-CONH2) = NC(=O)c1cccc(C[C@H](N)C(=O)O)c1; Phe(4-CONH2) = NC(=O)c1ccc(C[C@H](N)C(=O)O)cc1; Phe(4-COOH) = N[C@@H](Cc1ccc(C(=O)O)cc1)C(=O)O; 4Pal(3S-Me) = C[C@@H](c1ccncc1)[C@H](N)C(=O)O; Trp(7-aza) = N[C@@H](Cc1c[nH]c2ncccc12)C(=O)O; X9 = CN(C)[C@@H]1C[C@H](C(=O)[*:2])N([*:1])C1; Pip(5R-OH) = O=C(O)[C@@H]1CC[C@@H](O)CN1; αMeW = C[C@](N)(Cc1c[nH]c2ccccc12)C(=O)O; X1 = O=C([C@@H]1CC[C@H](N[*:1])C1)[*:2]; Pip(4-aza) = O=C(O)[C@@H]1CNCCN1; 4Pal = N[C@@H](Cc1ccncc1)C(=O)O; Abu(4-CN) = N#CCC[C@H](N)C(=O)O; Gly(cBu) = N[C@H](C(=O)O)C1CCC1; NMeE = CN[C@@H](CCC(=O)O)C(=O)O; dHyp = O=C(O)[C@H]1C[C@H](O)CN1; Cit = NC(=O)NCCC[C@H](N)C(=O)O; Gly(N-CH2CH2OH) = O=C(O)CNCCO; Ahp(2) = CCCCC[C@H](N)C(=O)O; hSer = N[C@@H](CCO)C(=O)O; αMeS = C[C@](N)(CO)C(=O)O; Carboxymethyl = O=C(O)C*; Nle = CCCC[C@H](N)C(=O)O; Sar = CNCC(=O)O
Target: T1, TNFα-induced NF-κB signal transduction pathway (TNFR1 signaling) in THP-1 cells (Homo sapiens, UniProt P19438)
T1 sequence (P19438 30-455): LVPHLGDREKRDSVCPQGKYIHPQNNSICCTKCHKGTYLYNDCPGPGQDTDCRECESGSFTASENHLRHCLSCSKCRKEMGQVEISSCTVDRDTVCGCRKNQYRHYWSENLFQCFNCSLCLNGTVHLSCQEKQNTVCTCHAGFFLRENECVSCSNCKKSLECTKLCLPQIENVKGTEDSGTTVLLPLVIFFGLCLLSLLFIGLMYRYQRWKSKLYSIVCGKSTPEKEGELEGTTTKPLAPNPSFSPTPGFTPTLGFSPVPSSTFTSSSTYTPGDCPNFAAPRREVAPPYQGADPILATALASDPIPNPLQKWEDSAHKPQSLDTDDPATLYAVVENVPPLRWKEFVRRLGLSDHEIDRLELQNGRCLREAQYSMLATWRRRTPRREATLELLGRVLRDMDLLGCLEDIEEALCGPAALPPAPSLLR
Assay: THP-1 Lucia NF-κB reporter cell assay, inhibition of TNFα-induced NF-κB signaling
Assay type: cell-based
Conditions: THP-1 NF-κB Lucia reporter cells, 10 ng/mL TNFα, 16-18 h, secreted luciferase; read-out: THP-1 IC50
Summary of the method: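 THP-1 Lucia NF-κB cells, 20k/well, no selection antibiotics; peptide pre-inc 1 h 37 °C; + recombinant human TNFα 10 ng/mL final; o.n.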

Structure (SMILES)	IC50 [nM]
CCCCC[C@@H]1NC(=O)[C@@H]2CC[C@@H](C2)NC(=O)[C@H]([C@@H](C)c2c[nH]c3c(OC)cccc23)NC(=O)CN(C)C(=O)[C@H](Cc2ccc(C(N)=O)cc2)NC(=O)[C@H](Cc2ccc(C(N)=O)cc2)NC(=O)[C@](C)(CO)NC(=O)[C@H](Cc2c[nH]c3c(C#N)cccc23)NC(=O)[C@H](Cc2ccc(C(=O)O)cc2)NC(=O)[C@H](CC(N)=O)NC(=O)[C@H]2C[C@H](O)CN2C(=O)[C@H](Cc2c[nH]c3ccccc23)NC(=O)[C@H](CCO)NC(=O)[C@H]([C@@H](C)c2ccncc2)NC1=O [SEQ ID NO. 50] (cyclo([Ahp(2)][4Pal(3S-Me)][hSer]W[dHyp]N[Phe(4-COOH)][Trp(7-CN)][αMeS][Phe(4-CONH2)][Phe(4-CONH2)][Sar][Trp(βS-Me,7-OMe)][X1]))	0.9
CCCC[C@@H]1NC(=O)[C@@H]2CC[C@@H](C2)NC(=O)[C@H]([C@@H](C)c2c[nH]c3c(OC)cccc23)NC(=O)CN(C)C(=O)[C@H](Cc2ccc(C(=O)O)cc2F)NC(=O)[C@H](Cc2ccc(S(N)(=O)=O)cc2)NC(=O)[C@](C)(CO)NC(=O)[C@H](Cc2c[nH]c3c(C#N)cccc23)NC(=O)[C@H](Cc2ccc(C(=O)O)cc2F)NC(=O)[C@H](CC(N)=O)NC(=O)[C@H]2C[C@H](O)CN2C(=O)[C@H](Cc2c[nH]c3ncccc23)NC(=O)[C@@H]2CC[C@@H](O)CN2C(=O)[C@H](Cc2cncnc2)NC1=O [SEQ ID NO. 51] (cyclo(N[Phe(2-F,4-COOH)][Trp(7-CN)][αMeS][Phe(4-SO2NH2)][Phe(2-F,4-COOH)][Sar][Trp(βS-Me,7-OMe)][X1][Nle][Ala(pyrimidin-5-yl)][Pip(5R-OH)][Trp(7-aza)][dHyp]))	0.4
CCCC[C@@H]1NC(=O)[C@@H]2CC[C@@H](C2)NC(=O)[C@H]([C@@H](C)c2c[nH]c3c(OC)cccc23)NC(=O)CN(C)C(=O)[C@H](Cc2ccc(C(=O)O)cc2)NC(=O)[C@H](Cc2ccc(C(N)=O)cc2)NC(=O)[C@](C)(CO)NC(=O)[C@H](Cc2c[nH]c3c(Cl)cccc23)NC(=O)[C@H](Cc2ccncc2)NC(=O)[C@H](CC(N)=O)NC(=O)[C@H]2C[C@H](O)CN2C(=O)[C@H](Cc2c[nH]c3ccccc23)NC(=O)[C@@H]2CC[C@@H](O)CN2C(=O)[C@H](Cc2ccncc2)NC1=O [SEQ ID NO. 53] (cyclo([4Pal][Trp(7-Cl)][αMeS][Phe(4-CONH2)][Phe(4-COOH)][Sar][Trp(βS-Me,7-OMe)][X1][Nle][4Pal][Pip(5R-OH)]W[dHyp]N))	0.6
COc1cccc2c([C@H](C)[C@@H]3NC(=O)CN(C)C(=O)[C@H](Cc4cccc(C(N)=O)c4)NC(=O)[C@H](Cc4ccc(C(=O)O)cc4)NC(=O)[C@](C)(CO)NC(=O)[C@H](Cc4c[nH]c5c(Cl)cccc45)NC(=O)[C@H](Cc4ccncc4)NC(=O)[C@H](CC(N)=O)NC(=O)[C@H]4C[C@H](O)CN4C(=O)[C@H](Cc4c[nH]c5ccccc45)NC(=O)[C@@H]4CC[C@@H](O)CN4C(=O)[C@H](Cc4ccncc4)NC(=O)[C@H](CCCNC(N)=O)NC(=O)[C@@H]4CC[C@@H](C4)NC3=O)c[nH]c12 [SEQ ID NO. 54] (cyclo([4Pal][Trp(7-Cl)][αMeS][Phe(4-COOH)][Phe(3-CONH2)][Sar][Trp(βS-Me,7-OMe)][X1][Cit][4Pal][Pip(5R-OH)]W[dHyp]N))	1.8
CCCC[C@@H]1NC(=O)CSC[C@@H](C(N)=O)NC(=O)[C@](C)(Cc2c[nH]c3ccccc23)NC(=O)CN(C)C(=O)[C@H](Cc2ccc(O)cc2)NC(=O)[C@H](Cc2ccc(C(=O)O)cc2)NC(=O)[C@](C)(CO)NC(=O)[C@H](Cc2c[nH]c3c(Cl)cccc23)NC(=O)[C@H](Cc2ccncc2)NC(=O)[C@H](CC(N)=O)NC(=O)[C@H](CCC(=O)O)N(C)C(=O)[C@H](Cc2c[nH]c3ncccc23)NC(=O)[C@H](C2CCC2)NC(=O)[C@H](Cc2ccncc2)NC1=O [SEQ ID NO. 56] ({CH2CO}-[Nle][4Pal][Gly(cBu)][Trp(7-aza)][NMeE]N[4Pal][Trp(7-Cl)][αMeS][Phe(4-COOH)]Y[Sar][αMeW]C-NH2; thioether N-14)	11
CCCCC[C@@H]1NC(=O)[C@@H]2CC[C@@H](C2)NC(=O)[C@H]([C@@H](C)c2c[nH]c3c(OC)cccc23)NC(=O)CN(C)C(=O)[C@H](Cc2ccc(C(N)=O)cc2)NC(=O)[C@H](Cc2ccc(C(N)=O)cc2)NC(=O)[C@](C)(CO)NC(=O)[C@H](Cc2c[nH]c3c(C#N)cccc23)NC(=O)[C@H](Cc2ccc(C(=O)O)cc2)NC(=O)[C@H](CC(N)=O)NC(=O)[C@H]2C[C@H](O)CN2C(=O)[C@H](Cc2c[nH]c3ccccc23)NC(=O)[C@H](CCC(N)=O)NC(=O)[C@H]([C@@H](C)c2ccncc2)NC1=O [SEQ ID NO. 70] (cyclo([Ahp(2)][4Pal(3S-Me)]QW[dHyp]N[Phe(4-COOH)][Trp(7-CN)][αMeS][Phe(4-CONH2)][Phe(4-CONH2)][Sar][Trp(βS-Me,7-OMe)][X1]))	0.9
CCCC[C@@H]1NC(=O)[C@@H]2CC[C@@H](C2)NC(=O)[C@H]([C@@H](C)c2c[nH]c3c(OC)cccc23)NC(=O)CN(C)C(=O)[C@H](Cc2ccc(O)cc2)NC(=O)[C@H](Cc2ccc(C(=O)O)cc2)NC(=O)[C@](C)(CO)NC(=O)[C@H](Cc2c[nH]c3c(Cl)cccc23)NC(=O)[C@H](Cc2ccncc2)NC(=O)[C@H](CC(N)=O)NC(=O)CN(CCO)C(=O)[C@H](Cc2c[nH]c3ccccc23)NC(=O)[C@@H]2CNCCN2C(=O)[C@H](Cc2ccncc2)NC1=O [SEQ ID NO. 72] (cyclo([4Pal][Trp(7-Cl)][αMeS][Phe(4-COOH)]Y[Sar][Trp(βS-Me,7-OMe)][X1][Nle][4Pal][Pip(4-aza)]W[Gly(N-CH2CH2OH)]N))	0.8
CCCC[C@@H]1NC(=O)[C@@H]2CC[C@@H](C2)NC(=O)[C@H]([C@@H](C)c2c[nH]c3c(OC)cccc23)NC(=O)CN(C)C(=O)[C@H](Cc2ccc(O)cc2)NC(=O)[C@H](Cc2ccc(C(N)=O)cc2)NC(=O)[C@](C)(CO)NC(=O)[C@H](Cc2c[nH]c3c(Cl)cccc23)NC(=O)[C@H](Cc2ccncc2)NC(=O)[C@H](CC(N)=O)NC(=O)[C@H](CCC(=O)O)N(C)C(=O)[C@H](Cn2ncc3ccccc32)NC(=O)[C@@H]2CC[C@@H](O)CN2C(=O)[C@H](Cc2ccncc2)NC1=O [SEQ ID NO. 74] (cyclo([4Pal][Trp(7-Cl)][αMeS][Phe(4-CONH2)]Y[Sar][Trp(βS-Me,7-OMe)][X1][Nle][4Pal][Pip(5R-OH)][Ala(indazol-1-yl)][NMeE]N))	0.5
CCCCC[C@@H]1NC(=O)[C@@H]2CC[C@@H](C2)NC(=O)[C@H]([C@@H](C)c2c[nH]c3c(OC)cccc23)NC(=O)CN(C)C(=O)[C@H](Cc2ccc(C(N)=O)cc2)NC(=O)[C@H](Cc2ccc(C(N)=O)cc2)NC(=O)[C@](C)(CO)NC(=O)[C@H](Cc2c[nH]c3c(C#N)cccc23)NC(=O)[C@H](Cc2ccc(C(=O)O)cc2)NC(=O)[C@H](CC(N)=O)NC(=O)[C@H]2C[C@H](O)CN2C(=O)[C@H](Cc2c[nH]c3ccccc23)NC(=O)[C@H](CCC#N)NC(=O)[C@H]([C@@H](C)c2ccncc2)NC1=O [SEQ ID NO. 79] (cyclo([Ahp(2)][4Pal(3S-Me)][Abu(4-CN)]W[dHyp]N[Phe(4-COOH)][Trp(7-CN)][αMeS][Phe(4-CONH2)][Phe(4-CONH2)][Sar][Trp(βS-Me,7-OMe)][X1]))	1.3
CCCC[C@@H]1NC(=O)[C@@H]2CC[C@@H](C2)NC(=O)[C@H]([C@@H](C)c2c[nH]c3c(OC)cccc23)NC(=O)CN(C)C(=O)[C@H](Cc2ccc(O)cc2)NC(=O)[C@H](Cc2ccc(OCC(=O)O)cc2)NC(=O)[C@](C)(CO)NC(=O)[C@H](Cc2c[nH]c3c(Cl)cccc23)NC(=O)[C@H](Cc2ccncc2)NC(=O)[C@H](CC(N)=O)NC(=O)[C@H](CCC(=O)O)N(C)C(=O)[C@H](Cc2c[nH]c3ccccc23)NC(=O)[C@@H]2CNCCN2C(=O)[C@H](Cc2ccncc2)NC1=O [SEQ ID NO. 80] (cyclo([4Pal][Trp(7-Cl)][αMeS]Y(Carboxymethyl)Y[Sar][Trp(βS-Me,7-OMe)][X1][Nle][4Pal][Pip(4-aza)]W[NMeE]N))	1.2
CCCC[C@@H]1NC(=O)[C@@H]2CC[C@@H](C2)NC(=O)[C@H]([C@@H](C)c2c[nH]c3c(OC)cccc23)NC(=O)CN(C)C(=O)[C@H](Cc2ccc(C(=O)O)cc2)NC(=O)[C@H](Cc2ccc(C(N)=O)cc2)NC(=O)[C@](C)(CO)NC(=O)[C@H](Cc2c[nH]c3c(Cl)cccc23)NC(=O)[C@H](Cc2ccncc2)NC(=O)[C@H](CC(N)=O)NC(=O)[C@H]2C[C@H](O)CN2C(=O)[C@H](Cc2c[nH]c3ccccc23)NC(=O)[C@@H]2CNCCN2C(=O)[C@H](Cc2ccncc2)NC1=O [SEQ ID NO. 83] (cyclo([4Pal][Trp(7-Cl)][αMeS][Phe(4-CONH2)][Phe(4-COOH)][Sar][Trp(βS-Me,7-OMe)][X1][Nle][4Pal][Pip(4-aza)]W[dHyp]N))	0.6
CCCCC[C@@H]1NC(=O)[C@@H]2CC[C@@H](C2)NC(=O)[C@H]([C@@H](C)c2c[nH]c3c(OC)cccc23)NC(=O)CN(C)C(=O)[C@H](Cc2cccc(C(N)=O)c2)NC(=O)[C@H](Cc2ccc(C(N)=O)cc2)NC(=O)[C@](C)(CO)NC(=O)[C@H](Cc2c[nH]c3c(C#N)cccc23)NC(=O)[C@H](Cc2ccc(C(=O)O)cc2)NC(=O)[C@H](CC(N)=O)NC(=O)[C@H]2C[C@@H](N(C)C)CN2C(=O)[C@H](Cc2c[nH]c3ccccc23)NC(=O)[C@@H]2CC[C@@H](O)CN2C(=O)[C@H](Cc2ccncc2)NC1=O [SEQ ID NO. 84] (cyclo([4Pal][Pip(5R-OH)]W[X9]N[Phe(4-COOH)][Trp(7-CN)][αMeS][Phe(4-CONH2)][Phe(3-CONH2)][Sar][Trp(βS-Me,7-OMe)][X1][Ahp(2)]))	0.6
